Measurements from the NIST ThermoML archive (doi:10.1007/s10765-016-2064-y).

Assays:
[1] = molar heat capacity at constant pressure; settings: 101.33 kPa, Liquid, Large sample (1 g) DSC
[2] = 101.33 kPa, Liquid; for speed of sound: Pulse-echo method; for mass density: Pycnometric method

CCCCCCCCBr [1-bromooctane]
[1]
Settings	molar heat capacity at constant pressure [J/K/mol]
298.15 K	272.15
303.15 K	274.7
308.15 K	277.25
313.15 K	279.8
318.15 K	282.35
323.15 K	284.92
328.15 K	287.47
333.15 K	290.02
338.15 K	292.56
343.15 K	295.11
348.15 K	297.66
353.15 K	300.23
358.15 K	302.78
363.15 K	305.33
368.15 K	307.88
373.15 K	310.43
378.15 K	313
383.15 K	315.55
388.15 K	318.1
393.15 K	320.64
398.15 K	323.19
403.15 K	325.76
408.15 K	328.31
413.15 K	330.86
418.15 K	333.41
423.15 K	335.96

CCCCCCCCCCCBr [1-bromoundecane]
[1]
Settings	molar heat capacity at constant pressure [J/K/mol]
298.15 K	373.22
303.15 K	375.72
308.15 K	378.21
313.15 K	380.7
318.15 K	383.19
323.15 K	385.69
328.15 K	388.18
333.15 K	390.67
338.15 K	393.17
343.15 K	395.66
348.15 K	398.15
353.15 K	400.62
358.15 K	403.12
363.15 K	405.61
368.15 K	408.1
373.15 K	410.6
378.15 K	413.09
383.15 K	415.58
388.15 K	418.08
393.15 K	420.57
398.15 K	423.06
403.15 K	425.56
408.15 K	428.02
413.15 K	430.52
418.15 K	433.01
423.15 K	435.5

CCCCCCCCCCCCCCBr [1-tetradecyl bromide]
Settings	mass density, [2] [kg/m3]	molar heat capacity at constant pressure, [1] [J/K/mol]	speed of sound, [2] [m/s]
298.15 K	1012.2	450.84	1277.2
303.15 K	1008.1	454.08	1260.6
308.15 K	1003.9	457.3	1244.1
313.15 K	999.8	460.54	1227.9
318.15 K	995.7	463.79	1211.9
323.15 K	991.6	467.03	1196
328.15 K	987.4	470.27	1180.4
333.15 K	983.3	473.52	1164.9
338.15 K	979.1	476.73	1149.6
343.15 K	974.9	479.98	1134.5
348.15 K	970.8	483.22	1119.5
353.15 K	966.6	486.47	1104.6
358.15 K	962.4	489.71	1089.9
363.15 K	958.2	492.93	1075.3
368.15 K	954	496.17	1060.9
373.15 K	949.8	499.42	1046.5
378.15 K	945.6	502.66	1032.3
383.15 K	941.3	505.9	1018.2
388.15 K	937.1	509.15	1004.2
393.15 K	932.9	512.37	990.2
398.15 K	928.6	515.61	976.4
403.15 K	924.4	518.85	962.6
408.15 K	920.1	522.1	948.9
413.15 K	915.9	525.34	935.3
418.15 K	911.6	528.56	921.7
423.15 K	907.4	531.8	908.1
